Measured values reported in US12691088B2, “Reactivation of mTOR in acute kidney injury (AKI)” (The Trustees of Columbia University in the City of New York, priority 2021, dated 2026).
Where two headings read alike, the source gives them in different places.

What was measured:
mTORC1 [1] = settings: cited from earlier work; for mTORC1 activation (phosphorylation of S6K1 at threonine 389): mouse embryonic fibroblast (MEF) cells
mTORC1 [2] = settings: human embryonic kidney 293A (HEK293A) cells; cited from earlier work
[3] = system: ischemia reperfusion (I/R)-induced iAKI; assay: functional screening of amino acids in ischemia reperfusion (I/R)-induced iAKI; format: in vivo, wild type C57B/L6 mice; settings: 48 hours reperfusion after 25 min ischemia, 75 mg/kg i.p. 1 hour prior and every 8 hours afterwards, vs vehicle; for BUN / sCr: n=5-6
Description: FIGS. 4A-F show functional screening of amino acids for the regulation of ischemia reperfusion (I/R)-induced iAKI. Ischemia was incurred by clamping renal artery of the left kidney for 25 min while the right kidney was removed prior to clamping. Renal functions were analyzed by quantitating serum creatinine (sCr) and blood urea nitrogen (BUN) after the reperfusion for 48 hours. FIGS. 4[…]) or L-valine (Val; 75 mg/kg) were intraperitoneally administered into wild type C57B/L6 mice 1 hour prior to the induction of ischemic and every 8 hours afterwards.

[4] = system: rhabdomyolysis (Rh)-induced iAKI; assay: functional screening of amino acids in rhabdomyolysis (Rh)-induced iAKI (50% glycerol i.m.); format: in vivo, wild type C57BL6 mice
Description: FIGS. 2A-L show a functional screening of amino acids for the regulation of rhabdomyolysis (Rh)-induced iAKI. Rh was incurred by intramuscularly injecting 50% glycerol (6 ml/kg), and renal functions were analyzed by quantitating serum creatinine (sCr) and blood urea nitrogen (BUN) after 24, 48 and 168 hours. […] or glutamine (75 mg/kg) were intraperitoneally administered into wild type C57BL6 mice at 1 hour prior to injury incurrence. It was observed that sCr and BUN were reduced at 24 hours (FIGS. 2A, B) in isoleucine-treated rhabdomyolysis mice, but were increased at 48 hours in leucine-treated mice (FIGS. 2C, D) when compared with vehicle (Veh)-treated counterparts (n=7). […] FIG. 2[…], or histidine were intraperitoneally administered into wild type C57BL6 mice at 1 hour prior to injury incurrence and then every 8 hours thereafter. It was observed that threonine reduces sCr and BUN at 24 h and histidine reduces sCr and BUN at 24 h and 48 h when compared with Veh Rh mice. Therefore, threonine and histidine protected from Rh-induced iAKI. […] FIGS. 3A-F show a functional screening of […] or L-valine for the regulation of rhabdomyolysis (Rh)-induced iAKI. Rh was incurred by intramuscularly injecting 50% glycerol (6 ml/kg), and renal functions were analyzed by quantitating serum creatinine (sCr) and blood urea nitrogen (BUN) after 24, 48 and 168 hours. FIGS. 3[…] or L-valine (75 mg/kg) were intraperitoneally administered into wild type C57BL6 mice at 1 hour prior to injury incurrence and then every 8 hours for a total of 5 doses.

[5] = system: ischemic acute kidney injury (AKI); assay: ischemia/reperfusion (IR) ischemic AKI in nephron-specific Spns1 knockout mice, L-leucine pretreatment; format: in vivo; settings: Spns1f/f/Six2-Cre IR AKI mice; 75 mg/kg i.p. 1 hour prior; 25 min ischemia, 48 hours reperfusion; vs vehicle; n=4-7
Description: (§1) L-leucine (75 mg/kg) was intraperitoneally administered into wild type (WT) and nephron-specific Spns1 knockout (Spns1f/f/Six2-Cre) mice 1 hour prior to initiating ischemic AKI. The left kidney was then removed. Ischemia/reperfusion (IR) was performed by clamping the renal artery of the right kidney for 25 min of ischemia followed by 48 hours of reperfusion.

[6] = system: ischemic acute kidney injury (AKI); assay: ischemia/reperfusion (IR) ischemic AKI in wild type mice, L-leucine pretreatment; format: in vivo; settings: WT IR AKI mice; 75 mg/kg i.p. 1 hour prior; 25 min ischemia, 48 hours reperfusion; vs vehicle; n=4-7
Description: as §1

[7] = 24 h post Rh, i.p. 1 hour prior to injury and every 8 hours thereafter, vs Veh Rh mice (FIG. 2G)
[8] = 24 h post Rh, i.p. 1 hour prior to injury and every 8 hours thereafter, vs Veh Rh mice (FIG. 2H)
[9] = 24 hours post Rh, 75 mg/kg i.p. 1 hour prior to injury then every 8 hours, total 5 doses, vs vehicle, n=7 (FIG. 3A)
[10] = 24 hours post Rh, 75 mg/kg i.p. 1 hour prior to injury then every 8 hours, total 5 doses, vs vehicle, n=7 (FIG. 3B)

Question: Which “mTORC1 activation (phosphorylation of S6K1 at threonine 389)” value (mTORC1 [1]) does the source give for N[C@@H](CO)C(=O)O [L-serine] here?
Answer: The value was “activate”.

Question: What about the “mTORC1 activation (phosphorylation of S6K1 at threonine 389)” value (mTORC1 [2]) of the same compound?
Answer: Its value is “activate”.

Question: What about the “impacts on I/R-AKI (sCr and BUN)” value [3] of the same compound?
Answer: The value was “Neither L-serine (FIGS. 4A, B), L-alanine (FIGS. 4A, B) nor L-methionine (FIGS. 4C, D) had significant impacts”.

Question: With N[C@@H](Cc1c[nH]cn1)C(=O)O [L-histidine] as the compound, how does the “mTORC1 activation (phosphorylation of S6K1 at threonine 389)” value (mTORC1 [1]) read?
Answer: Its value is “activate”.

Question: And the “mTORC1 activation (phosphorylation of S6K1 at threonine 389)” value (mTORC1 [2])?
Answer: Its value is “activate”.

Question: What about the sCr [4, 7] of the same compound?
Answer: The sCr was “reduces”.

Question: What about the BUN [4, 8] of the same compound?
Answer: The BUN was “reduces”.

Question: And the sCr ([4]; 48 h post Rh, i.p. 1 hour prior to injury and every 8 hours thereafter, vs Veh Rh mice (FIG. 2I))?
Answer: The sCr was “reduces”.

Question: And the BUN ([4]; 48 h post Rh, i.p. 1 hour prior to injury and every 8 hours thereafter, vs Veh Rh mice (FIG. 2J))?
Answer: The BUN was “reduces”.

Question: And the BUN [3]?
Answer: Its BUN is “reduced”.

Question: What about the sCr [3] of the same compound?
Answer: Its sCr is “reduced”.

Question: With NC(=O)CC[C@H](N)C(=O)O [L-glutamine] as the compound, how does the “mTORC1 activation (phosphorylation of S6K1 at threonine 389)” value (mTORC1 [1]) read?
Answer: Its value is “activate”.

Question: And the “mTORC1 activation (phosphorylation of S6K1 at threonine 389)” value (mTORC1 [2])?
Answer: The value was “activate”.

Question: What about the “effects on Rh-induced AKI (sCr and BUN)” value ([4]; 24, 48 and 168 hours post Rh, 75 mg/kg i.p. 1 hour prior to injury, vs vehicle (FIGS. 2A-F)) of the same compound?
Answer: The value was “no significant effects”.

Question: And the BUN [3]?
Answer: Its BUN is “reduced”.

Question: What about the sCr [3] of the same compound?
Answer: The sCr was “reduced”.

Question: With N[C@@H](CS)C(=O)O [Cysteine] as the compound, how does the “mTORC1 activation (phosphorylation of S6K1 at threonine 389)” value (mTORC1 [1]) read?
Answer: The value was “activates”.

Question: Which results are given for C[C@H](N)C(=O)O [L-alanine]?
Answer: mTORC1 activation (phosphorylation of S6K1 at threonine 389) (mTORC1 [1]): activate; mTORC1 activation (phosphorylation of S6K1 at threonine 389) (mTORC1 [2]): activate; impacts on I/R-AKI (sCr and BUN) [3]: Neither L-serine (FIGS. 4A, B), L-alanine (FIGS. 4A, B) nor L-methionine (FIGS. 4C, D) had significant impacts

Question: For N[C@@H](CC(=O)O)C(=O)O [L-aspartic acid], which BUN [3] is on record?
Answer: The BUN was “reduced”.

Question: What about the sCr [3] of the same compound?
Answer: Its sCr is “reduced”.

Question: For C[C@@H](O)[C@H](N)C(=O)O [L-threonine], which “mTORC1 activation (phosphorylation of S6K1 at threonine 389)” value (mTORC1 [1]) is on record?
Answer: Its value is “activate”.

Question: What about the “mTORC1 activation (phosphorylation of S6K1 at threonine 389)” value (mTORC1 [2]) of the same compound?
Answer: Its value is “activate”.

Question: What about the sCr [4, 7] of the same compound?
Answer: The sCr was “reduces”.

Question: What about the BUN [4, 8] of the same compound?
Answer: Its BUN is “reduces”.

Question: And the BUN [3]?
Answer: Its BUN is “reduced”.

Question: And the sCr [3]?
Answer: Its sCr is “reduced”.

Question: What does the source list for CC[C@H](C)[C@H](N)C(=O)O [L-isoleucine]?
Answer: sCr ([4]; 24 hours post Rh, 75 mg/kg i.p. 1 hour prior to injury, vs vehicle, n=7 (FIG. 2A)): reduced; BUN ([4]; 24 hours post Rh, 75 mg/kg i.p. 1 hour prior to injury, vs vehicle, n=7 (FIG. 2B)): reduced; BUN [3]: reduced; sCr [3]: reduced

Question: Which “lysosomal localization of mTORC1 induced by glutamine and asparagine” value (mTORC1 [1]; MEFs) does the source give for C[C@H]1CCC/C=C/[C@@H]2C[C@H](O)C[C@H]2[C@H](O)/C=C/C(=O)O1 [brefeldin A, reference compound] here?
Answer: Its value is “impairs”.

Question: And the “glutamine and asparagine-induced mTORC1 activation” value (mTORC1 [1]; wild type and Rag depleted MEFs)?
Answer: Its value is “inhibits”.

Question: Which results are given for N=C(N)NCCC[C@H](N)C(=O)O [L-arginine]?
Answer: mTORC1 activation (phosphorylation of S6K1 at threonine 389) (mTORC1 [1]): activate; mTORC1 activation (phosphorylation of S6K1 at threonine 389) (mTORC1 [2]): activate; sCr [4, 9]: reduced; BUN [4, 10]: reduced; BUN [3]: elevated; sCr [3]: elevated

Question: Which “mTORC1 activation (phosphorylation of S6K1 at threonine 389)” value (mTORC1 [1]) does the source give for NC(=O)C[C@H](N)C(=O)O [asparagine] here?
Answer: The value was “activate”.

Question: And the “mTORC1 activation (phosphorylation of S6K1 at threonine 389)” value (mTORC1 [2])?
Answer: The value was “activate”.

Question: For CC(C)C[C@H](N)C(=O)O [L-leucine], which “Serum creatinine (sCr)” value [5] is on record?
Answer: Its value is “markedly reduced”.

Question: What about the “blood urea nitrogen (BUN)” value [5] of the same compound?
Answer: Its value is “markedly reduced”.

Question: And the “mTORC1 activation (phosphorylation of S6K1 at threonine 389)” value (mTORC1 [1])?
Answer: Its value is “activate”.

Question: What about the “mTORC1 activation (phosphorylation of S6K1 at threonine 389)” value (mTORC1 [2]) of the same compound?
Answer: Its value is “activate”.

Question: What about the “Serum creatinine (sCr)” value [6] of the same compound?
Answer: The value was “markedly reduced”.

Question: What about the “blood urea nitrogen (BUN)” value [6] of the same compound?
Answer: The value was “markedly reduced”.

Question: What about the sCr ([4]; 48 hours post Rh, 75 mg/kg i.p. 1 hour prior to injury, vs vehicle, n=7 (FIG. 2C)) of the same compound?
Answer: Its sCr is “increased”.

Question: And the BUN ([4]; 48 hours post Rh, 75 mg/kg i.p. 1 hour prior to injury, vs vehicle, n=7 (FIG. 2D))?
Answer: Its BUN is “increased”.

Question: What about the BUN [3] of the same compound?
Answer: Its BUN is “reduced”.

Question: What about the sCr [3] of the same compound?
Answer: Its sCr is “reduced”.

Question: For CC(C)[C@H](N)C(=O)O [L-valine], which “mTORC1 activation (phosphorylation of S6K1 at threonine 389)” value (mTORC1 [1]) is on record?
Answer: The value was “activate”.

Question: What about the “mTORC1 activation (phosphorylation of S6K1 at threonine 389)” value (mTORC1 [2]) of the same compound?
Answer: Its value is “activate”.

Question: What about the sCr [4, 9] of the same compound?
Answer: The sCr was “reduced”.

Question: What about the BUN [4, 10] of the same compound?
Answer: Its BUN is “reduced”.

Question: What about the sCr ([4]; 48 hours post Rh, 75 mg/kg i.p. 1 hour prior to injury then every 8 hours, total 5 doses, vs vehicle, n=7 (FIG. 3C)) of the same compound?
Answer: The sCr was “reduced”.

Question: What about the BUN ([4]; 48 hours post Rh, 75 mg/kg i.p. 1 hour prior to injury then every 8 hours, total 5 doses, vs vehicle, n=7 (FIG. 3D)) of the same compound?
Answer: Its BUN is “reduced”.

Question: What about the BUN [3] of the same compound?
Answer: Its BUN is “elevated”.

Question: And the sCr [3]?
Answer: The sCr was “elevated”.

Question: With CSCC[C@H](N)C(=O)O [L-methionine] as the compound, how does the “mTORC1 activation (phosphorylation of S6K1 at threonine 389)” value (mTORC1 [1]) read?
Answer: Its value is “activate”.

Question: And the “mTORC1 activation (phosphorylation of S6K1 at threonine 389)” value (mTORC1 [2])?
Answer: The value was “activate”.

Question: And the “impacts on I/R-AKI (sCr and BUN)” value [3]?
Answer: Its value is “Neither L-serine (FIGS. 4A, B), L-alanine (FIGS. 4A, B) nor L-methionine (FIGS. 4C, D) had significant impacts”.
